# Measured values: PubChem BioAssay AID248 (DTP/NCI, 2004)
# Where “and” joins values, the source holds several entries; their conditions need not be identical. Equal entries are not always repeated. Inconclusive results and toxic doses are left out.
# System: L1210 leukemia ip in BDF1 mice, survival T/C
# Assay: NCI In Vivo Anticancer Drug Screen. Data for tumor model L1210 Leukemia (intraperitoneal) in B6D2F1 (BDF1) mice
# Conditions: endpoint: mean survival time, higher = longer survival
# Summary of the method: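 Ratio derived from survival: compound-dosed mice over vehicle-dosed mice, all bearing a transplantable tumor.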
# [1] = dose: 50.0 mg/kg/injection, schedule: Q04DX003 (ip), vehicle: saline
# [2] = dose: 100.0 mg/kg/injection, schedule: Q04DX003 (ip), vehicle: saline
# [3] = dose: 200.0 mg/kg/injection, schedule: Q04DX003 (ip), vehicle: saline
# [4] = dose: 400.0 mg/kg/injection, schedule: Q04DX003 (ip), vehicle: saline
# [5] = dose: 200.0 mg/kg/injection, schedule: Q01DX009 (ip), vehicle: saline with Tween-80
# [6] = dose: 75.0 mg/kg/injection, schedule: Q01DX001 (ip), vehicle: saline
compound,measurement,setting,value
CN1CCCC1CCCl (stereo not given),T/C,"dose: 12.5 mg/kg/injection, schedule: Q01DX001 (ip), vehicle: saline",97 % of control
same,T/C,"dose: 12.5 mg/kg/injection, schedule: Q04DX003 (ip), vehicle: saline",88 % of control
same,T/C,"dose: 25.0 mg/kg/injection, schedule: Q01DX001 (ip), vehicle: saline",100 % of control
same,T/C,"dose: 25.0 mg/kg/injection, schedule: Q04DX003 (ip), vehicle: saline",95 % of control
same,T/C,"dose: 50.0 mg/kg/injection, schedule: Q01DX001 (ip), vehicle: saline",100 % of control
same,T/C,[1],95 % of control
same,T/C,"dose: 75.0 mg/kg/injection, schedule: Q04DX003 (ip), vehicle: saline",100 % of control
Cc1nccn1-c1ccc(N=Cc2ccc(N(CCCl)CCCl)cc2)cc1,T/C,"dose: 43.8 mg/kg/injection, schedule: Q04DX002 (ip), vehicle: Klucel (hydroxypropylcellulose) (HPC)",106 % of control
same,T/C,"dose: 87.5 mg/kg/injection, schedule: Q04DX002 (ip), vehicle: Klucel (hydroxypropylcellulose) (HPC)",106 % of control
same,T/C,"dose: 175.0 mg/kg/injection, schedule: Q04DX002 (ip), vehicle: Klucel (hydroxypropylcellulose) (HPC)",109 % of control
c1ccc(ON=C2c3ccccc3-c3ccccc32)cc1,T/C,[2],102 % of control
same,T/C,[3],96 % of control
same,T/C,[4],89 % of control
C=CCn1c(=S)[nH]c2ccccc2c1=O,T/C,"dose: 100.0 mg/kg/injection, schedule: Q04DX003 (ip), vehicle: saline with Tween-80",93 % of control
same,T/C,[5],91 % of control
same,T/C,"dose: 200.0 mg/kg/injection, schedule: Q04DX003 (ip), vehicle: saline with Tween-80",94 % of control
same,T/C,"dose: 400.0 mg/kg/injection, schedule: Q01DX009 (ip), vehicle: saline with Tween-80",89 % of control
same,T/C,"dose: 400.0 mg/kg/injection, schedule: Q04DX003 (ip), vehicle: saline with Tween-80",96 % of control
CC(C)(COC(=O)c1ccc(N)cc1)NC1CCCCC1,T/C,[6],96 % of control
O=c1[nH]nc(-c2ccc(Br)cc2)s1,T/C,"dose: 100.0 mg/kg/injection, schedule: Q04DX003 (ip), vehicle: Klucel (hydroxypropylcellulose) (HPC)",101 % of control
same,T/C,"dose: 200.0 mg/kg/injection, schedule: Q04DX003 (ip), vehicle: Klucel (hydroxypropylcellulose) (HPC)",95 % of control
same,T/C,"dose: 400.0 mg/kg/injection, schedule: Q04DX003 (ip), vehicle: Klucel (hydroxypropylcellulose) (HPC)",98 % of control
Cc1csc[n+]1CCS(=O)(=O)[O-],T/C,"dose: 100.0 mg/kg/injection, schedule: Q01DX001 (ip), vehicle: saline",95 % of control
same,T/C,"dose: 200.0 mg/kg/injection, schedule: Q01DX001 (ip), vehicle: saline",97 % of control
same,T/C,"dose: 400.0 mg/kg/injection, schedule: Q01DX001 (ip), vehicle: saline",97 % of control
O=NN(CCF)C(=O)NC1CCS(=O)(=O)CC1,T/C,"dose: 1.12 mg/kg/injection, schedule: Q01DX015 (ip), vehicle: other",119 % of control
same,T/C,"dose: 1.76 mg/kg/injection, schedule: Q01DX015 (ip), vehicle: other",179 % of control
same,T/C,"dose: 1.9 mg/kg/injection, schedule: Q01DX001 (ip), vehicle: saline with Tween-80",201 % of control
same,T/C,"dose: 2.0 mg/kg/injection, schedule: Q01DX001 (ip), vehicle: other",118 % of control
same,T/C,"dose: 2.68 mg/kg/injection, schedule: Q01DX015 (ip), vehicle: other",309 % of control and 311 % of control
same,T/C,"dose: 3.52 mg/kg/injection, schedule: Q02DX008 (ip), vehicle: other",231 % of control and 246 % of control
same,T/C,"dose: 3.75 mg/kg/injection, schedule: Q01DX001 (ip), vehicle: other",160 % of control
same,T/C,"dose: 3.8 mg/kg/injection, schedule: Q01DX001 (ip), vehicle: saline with Tween-80",207 % of control
same,T/C,"dose: 4.0 mg/kg/injection, schedule: Q01DX015 (ip), vehicle: other",422 % of control and 644 % of control
same,T/C,"dose: 4.7 mg/kg/injection, schedule: Q## X004 (ip), vehicle: other",268 % of control
same,T/C,"dose: 5.0 mg/kg/injection, schedule: Q01DX001 (ip), vehicle: other",163 % of control
same,T/C,"dose: 5.36 mg/kg/injection, schedule: Q02DX008 (ip), vehicle: other",484 % of control and 538 % of control
same,T/C,"dose: 5.6 mg/kg/injection, schedule: Q## X032 (ip), vehicle: other",261 % of control
same,T/C,"dose: 6.0 mg/kg/injection, schedule: Q01DX015 (ip), vehicle: other",290 % of control and 433 % of control
same,T/C,"dose: 6.0 mg/kg/injection, schedule: Q## X032 (ip), vehicle: other",153 % of control
same,T/C,"dose: 7.0 mg/kg/injection, schedule: Q## X004 (ip), vehicle: other",519 % of control and 532 % of control
same,T/C,"dose: 7.5 mg/kg/injection, schedule: Q01DX001 (ip), vehicle: other",302 % of control
same,T/C,"dose: 7.5 mg/kg/injection, schedule: Q01DX001 (ip), vehicle: saline with Tween-80",557 % of control
same,T/C,"dose: 8.0 mg/kg/injection, schedule: Q01DX001 (ip), vehicle: other",186 % of control
same,T/C,"dose: 8.0 mg/kg/injection, schedule: Q02DX008 (ip), vehicle: other",426 % of control and 715 % of control
same,T/C,"dose: 9.0 mg/kg/injection, schedule: Q01DX015 (ip), vehicle: other",339 % of control
same,T/C,"dose: 9.4 mg/kg/injection, schedule: Q01DX001 (ip), vehicle: other",364 % of control
same,T/C,"dose: 10.0 mg/kg/injection, schedule: Q01DX001 (ip), vehicle: other",340 % of control
same,T/C,"dose: 10.7 mg/kg/injection, schedule: Q## X004 (ip), vehicle: other",605 % of control and 650 % of control
same,T/C,"dose: 12.0 mg/kg/injection, schedule: Q02DX008 (ip), vehicle: other",330 % of control and 476 % of control
same,T/C,"dose: 13.0 mg/kg/injection, schedule: Q## X032 (ip), vehicle: other",468 % of control
same,T/C,"dose: 14.0 mg/kg/injection, schedule: Q01DX001 (ip), vehicle: other",577 % of control and 580 % of control
same,T/C,"dose: 15.0 mg/kg/injection, schedule: Q01DX001 (ip), vehicle: other",365 % of control
same,T/C,"dose: 15.0 mg/kg/injection, schedule: Q01DX001 (ip), vehicle: saline with Tween-80",666 % of control
same,T/C,"dose: 16.0 mg/kg/injection, schedule: Q01DX001 (ip), vehicle: other",315 % of control
same,T/C,"dose: 16.0 mg/kg/injection, schedule: Q## X004 (ip), vehicle: other",365 % of control and 580 % of control
same,T/C,"dose: 18.0 mg/kg/injection, schedule: Q02DX008 (ip), vehicle: other",326 % of control
same,T/C,"dose: 19.0 mg/kg/injection, schedule: Q## X032 (ip), vehicle: other",180 % of control and 430 % of control
same,T/C,"dose: 20.0 mg/kg/injection, schedule: Q01DX001 (ip), vehicle: other",365 % of control
same,T/C,"dose: 24.0 mg/kg/injection, schedule: Q## X004 (ip), vehicle: other",231 % of control and 271 % of control
same,T/C,"dose: 29.0 mg/kg/injection, schedule: Q## X032 (ip), vehicle: other",115 % of control
same,T/C,"dose: 30.0 mg/kg/injection, schedule: Q01DX001 (ip), vehicle: other",365 % of control
same,T/C,"dose: 30.0 mg/kg/injection, schedule: Q01DX001 (ip), vehicle: saline with Tween-80",677 % of control
same,T/C,"dose: 31.0 mg/kg/injection, schedule: Q01DX001 (ip), vehicle: other",315 % of control
same,T/C,"dose: 36.0 mg/kg/injection, schedule: Q## X004 (ip), vehicle: other",253 % of control
same,T/C,"dose: 40.0 mg/kg/injection, schedule: Q01DX001 (ip), vehicle: other",334 % of control
O=C(O)CNCc1cccc(Br)c1,T/C,"dose: 100.0 mg/kg/injection, schedule: Q01DX009 (ip), vehicle: saline",103 % of control
same,T/C,[2],95 % of control
same,T/C,"dose: 200.0 mg/kg/injection, schedule: Q01DX009 (ip), vehicle: saline",92 % of control
same,T/C,[3],113 % of control
same,T/C,"dose: 400.0 mg/kg/injection, schedule: Q01DX009 (ip), vehicle: saline",98 % of control
same,T/C,[4],98 % of control
CCN(CC)CCOC(=O)c1ccccc1Nc1cccc(C)c1,T/C,"dose: 4.0 mg/kg/injection, schedule: Q01DX015 (ip), vehicle: saline",98 % of control
same,T/C,"dose: 8.0 mg/kg/injection, schedule: Q01DX015 (ip), vehicle: saline",102 % of control
same,T/C,"dose: 16.0 mg/kg/injection, schedule: Q01DX015 (ip), vehicle: saline",98 % of control
same,T/C,"dose: 32.0 mg/kg/injection, schedule: Q01DX015 (ip), vehicle: saline",106 % of control
same,T/C,[1],101 % of control
same,T/C,[2],103 % of control
Cc1cc(OC(=O)NC2CCCCC2)cc(C)c1Cl,T/C,"dose: 100.0 mg/kg/injection, schedule: Q01DX009 (ip), vehicle: Klucel (hydroxypropylcellulose) (HPC)",95 % of control
same,T/C,"dose: 200.0 mg/kg/injection, schedule: Q01DX009 (ip), vehicle: Klucel (hydroxypropylcellulose) (HPC)",95 % of control
same,T/C,"dose: 400.0 mg/kg/injection, schedule: Q01DX009 (ip), vehicle: Klucel (hydroxypropylcellulose) (HPC)",94 % of control
CCOC(=O)C(C(C)=O)C1c2ccccc2Nc2ccccc21 (stereo not given),T/C,"dose: 50.0 mg/kg/injection, schedule: Q01DX009 (ip), vehicle: saline with Tween-80",98 % of control
same,T/C,"dose: 100.0 mg/kg/injection, schedule: Q01DX009 (ip), vehicle: saline with Tween-80",109 % of control
same,T/C,[5],106 % of control
Cc1ccc(S(=O)(=O)N(N)C(=O)c2ccccc2)cc1,T/C,[6],86 % of control
